From the NIST ThermoML archive (doi:10.1021/acs.jced.5b00075)

How the values were obtained:
[1] = Crystal; DTA
[2] = Molar enthalpy of transition or fusion; details: Crystal; DSC
[3] = molar heat capacity at constant pressure; details: 101.33 kPa, Small sample (50 mg) DSC

C(=C\c1ccccc1)/CN1CCN(C(c2ccccc2)c2ccccc2)CC1 [cinnarizine]
Details | Molar enthalpy of transition or fusion [kJ/mol] | Normal melting temperature [°C]
[1] | – | 120.83
[2] | 37.1 | –

[3]
Details | molar heat capacity at constant pressure [J/K/mol]
305 K, Crystal | 307.19
310 K, Crystal | 314.6
315 K, Crystal | 322.02
320 K, Crystal | 329.43
325 K, Crystal | 336.84
330 K, Crystal | 344.26
335 K, Crystal | 351.67
340 K, Crystal | 359.09
345 K, Crystal | 366.5
350 K, Crystal | 373.91
355 K, Crystal | 381.33
360 K, Crystal | 388.74
365 K, Crystal | 396.15
370 K, Crystal | 403.57
375 K, Crystal | 410.98
380 K, Crystal | 418.4
385 K, Crystal | 425.81
400 K, Liquid | 558.85
405 K, Liquid | 563.97
410 K, Liquid | 569.09
415 K, Liquid | 574.21
